Several values for one entry are separate records, joined by “and”; a condition that tells them apart may be missing. Identical values can stand only once.
Assays:
Format in all cases: biochemical
[1] = biological target: T1, human salivary α-amylase (HSA) (Homo sapiens, UniProt P0DUB6); test: Hydrolysis rate of substrates by α-amylase (relative to G5P); conditions: substrate 1.0 mM, pH 7, value of G5P taken as 1
T1 sequence (P0DUB6 16-511): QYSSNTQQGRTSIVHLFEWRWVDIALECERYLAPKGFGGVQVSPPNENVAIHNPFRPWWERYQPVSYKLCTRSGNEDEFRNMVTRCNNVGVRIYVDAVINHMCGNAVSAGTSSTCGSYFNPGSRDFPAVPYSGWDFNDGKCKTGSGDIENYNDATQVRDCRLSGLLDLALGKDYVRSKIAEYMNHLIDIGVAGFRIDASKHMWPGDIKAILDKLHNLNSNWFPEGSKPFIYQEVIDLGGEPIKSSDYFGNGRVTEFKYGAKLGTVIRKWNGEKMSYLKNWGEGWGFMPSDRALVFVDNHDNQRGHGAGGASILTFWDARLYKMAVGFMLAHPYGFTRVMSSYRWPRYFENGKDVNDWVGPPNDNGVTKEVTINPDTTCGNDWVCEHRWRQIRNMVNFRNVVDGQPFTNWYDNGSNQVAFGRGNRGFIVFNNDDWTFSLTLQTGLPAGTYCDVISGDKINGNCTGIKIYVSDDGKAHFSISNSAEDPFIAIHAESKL
Method: (§1) The above-mentioned advantages can be shown by using the following oligosaccharides: [drawing 6] n = 2: BG4P n = 3: BG5P (the present invention) n = 4: BG6P n = 5: BG7P [drawing 7] n = 2: G4P n = 3: G5P (standard) n = 4: G6P n = 5: G7P [drawing 8] n = 2: BDG4P n = 3: BDG5P n = 4: BDG6P n = 5: BDG7P The hydrolysis rate is measured by using human pancreatic α-amylase (HPA) or human salivary α-amylase (HSA) for each substrate (1.0 mM) at pH 7, and evaluating by means of relative values by taking the value of G5P as 1.

[2] = biological target: T2, human pancreatic α-amylase (HPA) (Homo sapiens, UniProt P04746); test: as above; conditions: substrate 1.0 mM, pH 7, value of G5P taken as 1
T2 sequence (P04746 16-511): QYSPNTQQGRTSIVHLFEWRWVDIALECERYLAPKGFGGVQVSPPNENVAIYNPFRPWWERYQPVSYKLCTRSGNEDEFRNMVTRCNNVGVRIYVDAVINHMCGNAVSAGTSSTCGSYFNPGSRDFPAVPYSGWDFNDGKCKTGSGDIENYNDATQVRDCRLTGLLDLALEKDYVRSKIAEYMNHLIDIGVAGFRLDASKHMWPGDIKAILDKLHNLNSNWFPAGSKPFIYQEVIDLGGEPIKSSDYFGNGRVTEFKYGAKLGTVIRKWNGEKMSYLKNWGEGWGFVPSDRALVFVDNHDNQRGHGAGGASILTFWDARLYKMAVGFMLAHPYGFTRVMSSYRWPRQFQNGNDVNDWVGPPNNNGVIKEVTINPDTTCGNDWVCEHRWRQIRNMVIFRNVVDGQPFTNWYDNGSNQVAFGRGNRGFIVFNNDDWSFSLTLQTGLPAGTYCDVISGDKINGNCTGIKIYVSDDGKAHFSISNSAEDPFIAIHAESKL
Method: as §1

HSA = biological target: T3, HSA (Homo sapiens, UniProt P0DUB6); test: Binding mode (distribution of hydrolysis products) by HPLC; conditions: for Hydrolysis product G2P: share of product G2P; for Hydrolysis product G3P: share of product G3P; for Hydrolysis product G4P: share of product G4P; for Hydrolysis product GP: share of product GP
T3 sequence (P0DUB6 16-511): T1 sequence (P0DUB6 16-511)
Method: (§2) The binding mode of each substrate were measured with high-performance liquid chromatography (HPLC) as described above.

HPA [3] = biological target: T4, HPA (Homo sapiens, UniProt P04746); test: as above; conditions: for Hydrolysis product G2P: share of product G2P; for Hydrolysis product G3P: share of product G3P; for Hydrolysis product G4P: share of product G4P; for Hydrolysis product GP: share of product GP
T4 sequence (P04746 16-511): T2 sequence (P04746 16-511)
Method: as §2

HPA [4] = biological target: T4, HPA; test: Km determination (Lineweaver-Burk plot, products measured by HPLC); conditions: 50 mM BES/NaOH buffer pH 7.6, 37°C, 5 min
Method: The amounts of the products were measured with HPLC.

hydrolysis rate (relative value) [1] | hydrolysis rate (relative value) [2] | Hydrolysis product G2P (HSA) | Hydrolysis product G3P (HSA) | Hydrolysis product G4P (HSA) | Hydrolysis product GP (HSA) | Hydrolysis product G2P (HPA [3]) | Hydrolysis product G3P (HPA [3]) | Hydrolysis product G4P (HPA [3]) | Hydrolysis product GP (HPA [3]) | Km (HPA [4]) | Hydrolysis product (result in words) (HSA) | Hydrolysis product (result in words) (HPA [3]) | Compound
1.7 | 1.7 | 40% | 53% | 0% | 7% | 22% | 76% | 0% | 2% |  |  |  | O=[N+]([O-])c1ccc(O[C@H]2O[C@H](CO)[C@@H](O[C@H]3O[C@H](CO)[C@@H](O[C@H]4O[C@H](CO)[C@@H](O[C@H]5O[C@H](CO)[C@@H](O[C@H]6O[C@H](CO)[C@@H](O[C@H]7O[C@H](CO)[C@@H](O)[C@H](O)[C@H]7O)[C@H](O)[C@H]6O)[C@H](O)[C@H]5O)[C@H](O)[C@H]4O)[C@H](O)[C@H]3O)[C@H](O)[C@H]2O)cc1 [Substrate G6P]
1.0 | 1.1 | 55% | 25% | 15% | 5% | 48% | 22% | 13% | 7% | 86 µM and 88.1 µM |  |  | O=[N+]([O-])c1ccc(O[C@H]2O[C@H](CO)[C@@H](O[C@H]3O[C@H](CO)[C@@H](O[C@H]4O[C@H](CO)[C@@H](O[C@H]5O[C@H](CO)[C@@H](O[C@H]6O[C@H](CO)[C@@H](O[C@H]7O[C@H](CO)[C@@H](O[C@H]8O[C@@H]9COC(c%10ccccc%10)O[C@H]9[C@H](O)[C@H]8O)[C@H](O)[C@H]7O)[C@H](O)[C@H]6O)[C@H](O)[C@H]5O)[C@H](O)[C@H]4O)[C@H](O)[C@H]3O)[C@H](O)[C@H]2O)cc1 (some centres unmarked) [BDG7P]
0.60 | 0.55 | 10% | 0% | 0% | 90% | 8% | 0% | 0% | 92% |  |  |  | O=[N+]([O-])c1ccc(O[C@H]2O[C@H](CO)[C@@H](O[C@H]3O[C@H](CO)[C@@H](O[C@H]4O[C@H](CO)[C@@H](O[C@H]5O[C@H](COCc6ccccc6)[C@@H](O)[C@H](O)[C@H]5O)[C@H](O)[C@H]4O)[C@H](O)[C@H]3O)[C@H](O)[C@H]2O)cc1 [BG4P]
1.4 | 1.4 | 29% | 68% | 0% | 3% | 23% | 73% | 0% | 4% |  |  |  | O=[N+]([O-])c1ccc(O[C@H]2O[C@H](CO)[C@@H](O[C@H]3O[C@H](CO)[C@@H](O[C@H]4O[C@H](CO)[C@@H](O[C@H]5O[C@H](CO)[C@@H](O[C@H]6O[C@H](CO)[C@@H](O[C@H]7O[C@H](COCc8ccccc8)[C@@H](O)[C@H](O)[C@H]7O)[C@H](O)[C@H]6O)[C@H](O)[C@H]5O)[C@H](O)[C@H]4O)[C@H](O)[C@H]3O)[C@H](O)[C@H]2O)cc1 [BG6P]
0 | 0 |  |  |  |  |  |  |  |  |  | Not hydrolyzed | Not hydrolyzed | O=[N+]([O-])c1ccc(O[C@H]2O[C@H](CO)[C@@H](O[C@H]3O[C@H](CO)[C@@H](O[C@H]4O[C@H](CO)[C@@H](O[C@H]5O[C@@H]6COC(c7ccccc7)O[C@H]6[C@H](O)[C@H]5O)[C@H](O)[C@H]4O)[C@H](O)[C@H]3O)[C@H](O)[C@H]2O)cc1 (some centres unmarked) [BDG4P]
1.8 | 1.8 | 8% | 30% | 60% | 2% | 14% | 30% | 55% | 1% |  |  |  | O=[N+]([O-])c1ccc(O[C@H]2O[C@H](CO)[C@@H](O[C@H]3O[C@H](CO)[C@@H](O[C@H]4O[C@H](CO)[C@@H](O[C@H]5O[C@H](CO)[C@@H](O[C@H]6O[C@H](CO)[C@@H](O[C@H]7O[C@H](CO)[C@@H](O[C@H]8O[C@H](CO)[C@@H](O)[C@H](O)[C@H]8O)[C@H](O)[C@H]7O)[C@H](O)[C@H]6O)[C@H](O)[C@H]5O)[C@H](O)[C@H]4O)[C@H](O)[C@H]3O)[C@H](O)[C@H]2O)cc1 [Substrate G7P]
0 | 0 |  |  |  |  |  |  |  |  |  | Not hydrolyzed | Not hydrolyzed | O=[N+]([O-])c1ccc(O[C@H]2O[C@H](CO)[C@@H](O[C@H]3O[C@H](CO)[C@@H](O[C@H]4O[C@H](CO)[C@@H](O[C@H]5O[C@H](CO)[C@@H](O[C@H]6O[C@@H]7COC(c8ccccc8)O[C@H]7[C@H](O)[C@H]6O)[C@H](O)[C@H]5O)[C@H](O)[C@H]4O)[C@H](O)[C@H]3O)[C@H](O)[C@H]2O)cc1 (some centres unmarked) [BDG5P]
1.5 | 1.5 | 15% | 38% | 45% | 2% | 20% | 38% | 40% | 2% |  |  |  | O=[N+]([O-])c1ccc(O[C@H]2O[C@H](CO)[C@@H](O[C@H]3O[C@H](CO)[C@@H](O[C@H]4O[C@H](CO)[C@@H](O[C@H]5O[C@H](CO)[C@@H](O[C@H]6O[C@H](CO)[C@@H](O[C@H]7O[C@H](CO)[C@@H](O[C@H]8O[C@H](COCc9ccccc9)[C@@H](O)[C@H](O)[C@H]8O)[C@H](O)[C@H]7O)[C@H](O)[C@H]6O)[C@H](O)[C@H]5O)[C@H](O)[C@H]4O)[C@H](O)[C@H]3O)[C@H](O)[C@H]2O)cc1 [BG7P]
0.75 | 0.70 | 74% | 0% | 0% | 26% | 55% | 0% | 0% | 45% |  |  |  | O=[N+]([O-])c1ccc(O[C@H]2O[C@H](CO)[C@@H](O[C@H]3O[C@H](CO)[C@@H](O[C@H]4O[C@H](CO)[C@@H](O[C@H]5O[C@H](CO)[C@@H](O)[C@H](O)[C@H]5O)[C@H](O)[C@H]4O)[C@H](O)[C@H]3O)[C@H](O)[C@H]2O)cc1 [Substrate G4P]
0.5 | 0.4 | 66% | 10% | 0% | 24% | 73% | 12% | 0% | 15% |  |  |  | O=[N+]([O-])c1ccc(O[C@H]2O[C@H](CO)[C@@H](O[C@H]3O[C@H](CO)[C@@H](O[C@H]4O[C@H](CO)[C@@H](O[C@H]5O[C@H](CO)[C@@H](O[C@H]6O[C@H](CO)[C@@H](O[C@H]7O[C@@H]8COC(c9ccccc9)O[C@H]8[C@H](O)[C@H]7O)[C@H](O)[C@H]6O)[C@H](O)[C@H]5O)[C@H](O)[C@H]4O)[C@H](O)[C@H]3O)[C@H](O)[C@H]2O)cc1 (some centres unmarked) [BDG6P]

From patent publication EP0252525B1, “Alpha-amylase assay using modified oligosaccharide and process for producing said modified oligosaccharide” (WAKO PURE CHEMICAL INDUSTRIES, LTD, priority 1986, dated 1988)
